According to patent publication US7226761B2, “Manufacture of five-carbon sugars and sugar alcohols” (Danisco Sweeteners Oy, priority 1992, dated 2007):
Read-outs that look alike come from different tables or passages of the source.

Legend:
[1] = tested on: TKL1,2 deficient strain harboring the XDH encoding gene from P. stipitis on a multi-copy plasmid (H1057); conditions: for Polyols from glucose consumed in %: 25 μM IA
Method: TKL1,2 deficient strain H1055 carrying the pAOS67 multi-copy plasmid harboring the XDH encoding gene from P. stipitis (H1057) was cultivated in the presence of 25 μM IA (Fluka Chemie AG, Switzerland). The growth medium was SCD lacking histidine for plasmid selection and 7.65 g/l KNO3. Samples were withdrawn at the indicated time points, the OD600 measured, cells removed by centrifugation, and the growth medium samples were assayed for polyols by the Boehringer Mannheim D-sorbitol/xylitol kit and for glucose by the Boehringer Mannheim GOD-Perid kit.

DOG1 = target: T1, DOG1 (Saccharomyces cerevisiae, UniProt P38774); assay: Specificity of DOG1 towards sugar phosphates in yeast cell extracts (phosphate release); assay type: biochemical, S. cerevisiae; conditions: 20 mM substrate; cell extract of H1514; relative to 2-deoxyglucose-6-P as 100%
T1 construct: expressed in transfected cells; host or cells: S. cerevisiae H1104 (W303-1B) transformed with plasmid B1020 (YEplac195, ADH1 promoter-DOG1-ADH1 terminator) = strain H1514; crude cell extract
T1 sequence (P38774 1-246): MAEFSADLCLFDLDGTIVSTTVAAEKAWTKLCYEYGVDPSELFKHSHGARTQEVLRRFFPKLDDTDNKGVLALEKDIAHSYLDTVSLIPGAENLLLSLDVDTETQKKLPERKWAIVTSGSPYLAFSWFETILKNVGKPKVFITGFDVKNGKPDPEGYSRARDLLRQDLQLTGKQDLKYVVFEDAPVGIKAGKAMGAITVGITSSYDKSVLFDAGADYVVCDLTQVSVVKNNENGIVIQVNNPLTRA
Method: The specificity of DOG1 towards xylulose-5-P, ribulose-5-P, ribose-5-P and 2-deoxyglucose-6-P was determined using 20 mM substrate concentrations. Yeast cell extracts were prepared as described in example 15, except that 50 mM imidazole-HCl, 10 mM MgCl2 buffer, pH 6.0 was used. 10 μl of extract and 210 μl of substrate (20 mM) in the same buffer was incubated for 30 min, 30° C. The reaction was stopped with final 2% of TCA and the phosphate released was measured using ammonium molybdate (15 mM), zinc acetate (100 mM), pH 5.0 as the reagent. The formation of molybdenum blue was measured at 350 nm, and quantified by phosphate standards (Sanz, P. et al., Yeast 10:1195–1202 (1994); Bencini, D. A. et al., Anal. Biochem. 132:254–258 (1983)).

[2] = Xylulose 5-phosphate reductase (XPDH/APDH) activity assay with NADH; assay type: biochemical; conditions: cell extract of transformed B. subtilis BD170; xylulose 5-phosphate usually 5 mM
Method: The strain BD 170 [pGTK24(MXD2)] as well as untransformed strain BD 170 was grown overnight on either LB or LB, containing 10% glucose, cell extracts were prepared and the XDH activity measured. The assay conditions for measuring XDH activity were: 30° C., 50 mM Tris-HCI, pH 7.0, 0.2 mM NADH and 10 mM D-xylulose. Changes of absorption at 340 nm were recorded; one unit of activity was defined as the amount of enzyme that catalyzed the reduction of one […] of substrate per minute under the conditions of assay (assuming the differential absorption coefficient NADH/NAD^+ to be equal to […]). The following levels of XDH activity were measured in the strain BD170 [pGTK24(MXD2)] grown on the two media: LB—0.5 U/mgproteins, LB-glucose 0.05–0.15 U/mgprotein. Thus, glucose appeared to repress the activity of the aldolase promoter 3–10 fold. No XDH activity could be detected in the strain BD170 grown on either of the two media.
B. subtilis strain BD170 was transformed with pGTK74(LRXPDH) and pGTK74(BHDH2). The transformants were grown overnight in LB containing 25 mg/liter kanamycin, cell extract were prepared by sonication and the activity of XPDH activity was measured. The conditions for measuring the XPDH activity were similar to those used for measuring the xylitol dehydrogenase activity except that xylulose 5-phosphate was used as the substrate (usually at 5 mM concentration) instead of xylulose. The activities were approximately 0.3 U/mg protein for the XPDH from L. rhamnosus and about 0.5 U/mg protein for B. halodurans enzyme.
Enterococcus avium ATCC 35655 was cultivated at 30° C. in 5 liters of a medium containing: peptone—10 g/l, yeast extract—5 g/l, beef extract 10 g/l, K2HPO4 2 g/l, NaCl—5 g/l, MgSO4—0.02 g/l, MnCl2—0.05 g/l, ammonium citrate 2 g/l, Tween 20—1.1 ml/l, xylitol—20g/l, pH 6.5. […]

[3] = Stereospecificity of D-xylulose 5-phosphate reduction, products dephosphorylated and analyzed by HPLC; assay type: biochemical; conditions: 10 mM xylulose 5-phosphate, 10 mM NADH, pH 7.0, 37° C.
Method: The stereospecificity of xylulose-phosphate reduction by the B. halodurans XPDH was verified by the following procedure. The reaction between D-xylulose 5-phosphate and NADH was conducted at 37° C. for several hours under the following conditions: 100 mM Tris-HC buffer, pH 7.0, 10 mM xylulose 5-phosphate, 10 mM NADH, […] the enzyme lysate. The reaction products were dephosphorylated with alkaline phosphatase and analyzed by HPLC. […] It should be noted that among the highest-scoring four homologues of the L. rhamnosus XPDH, the enzyme from B. holodurans is the least homologous. This can be interpreted as an indication that the other three homologues (SEQ ID NO:51, 52 and 53) are most probably also xylitol-phosphate dehydrogenases.
The stereospecificity of D-xylulose 5-phosphate reduction by the E. avium arabitol-phosphate dehydrogenase was verified by the following procedure. The reaction between D-xylulose 5-phosphate and NADH was conducted at 37° C. for several hours under the following conditions: 100 mM Tris-HCl buffer, pH 7.0, 10 mM xylulose 5-phosphate, 10 mM NADH, 1U of the enzyme. The reaction products were dephosphorylated with alkaline phosphatase and analyzed by HPLC. […] There are no other arabitol-phosphate dehydrogenases described in the art.
Both arabitol-phosphate dehydrogenase genes were expressed using the same tools and methods as those used for the expression of xylitol-phosphate dehydrogenases (Example 26). Briefly, the coding regions of the two arabitol-phosphate dehydrogenase genes were amplified using the chromosomal DNA of the microorganism from which the enzyme was isolated and the appropriate PCR primers. In the case of E. avium the primers were oAPDH 51 […] SEQ ID NO: 71) and the anti-sense primer oAPDH 31 […]) SEQ ID NO: 72. For B. halodurans, the sense primer was oBHDH 5 ([…], SEQ ID NO: 73) and the anti-sense primer was oBHDH 3 ([…], SEQ ID NO: 74). […] The stereospecificity of D-xylulose 5-phosphate reduction by the previously unknown enzyme from B. halodurans was determined as described in Example 30.

Q: With `O=C(O)CI` [iodacetate, iodoacetate] as the molecule, how does the “Polyols from glucose consumed in %” value ([1]; 28 h) read?
A: 0.45%

Q: And the “Polyols from glucose consumed in %” value ([1]; 45 h)?
A: 0.74%

Q: What about the “Polyols from glucose consumed in %” value ([1]; 52 h) of the same molecule?
A: 0.57%

Q: What about the “Polyols from glucose consumed in %” value ([1]; 69 h) of the same molecule?
A: 0.72%

Q: And the “Polyols from glucose consumed in %” value ([1]; 77 h)?
A: 0.87%

Q: And the “Polyols from glucose consumed in %” value ([1]; 93 h)?
A: 0.93%

Q: And the “Polyols from glucose consumed in %” value ([1]; 100 h)?
A: 1.13%

Q: What about the “glucose consumed metabolised to polyols (xylitol+part of ribitol)” value ([1]; in the presence of iodoacetate) of the same molecule?
A: 1.2%

Q: What about the “increase in polyol production” value ([1]; in the presence of iodoacetate vs without) of the same molecule?
A: about 30%

Q: With `O=C(CO)[C@@H](O)[C@H](O)COP(=O)(O)O` [xylulose-5-P, Xylulose-5-phosphate] as the molecule, how does the “Relative activity (20 mM)” value (DOG1) read?
A: 15%

B1: XPDH from L. rhamnosus: xylitol-phosphate dehydrogenase from Lactobacillus rhamnosus, SEQ ID NO:49 (protein, listed as Lactobacillus rhamnosus)
chain: MKASMLEDLNKFSVKEIDIPSPKKDEVVVKVMAAGTCGSDSHKMISGWKYGYPAVMGHEFSGIVTQLGENVSNVSVGQHVAVAPFIPCFKCHYCQIGLFQMCENYSMLGQQKFGGFEQYVSVPARNVLDIGKMSFEEGALIEPMAVAAHAVMGIKPELGDTVAVFGLGTVGDLVVRLLISSGATNVIGIDIDDQKLEKGLDEGCTHVINSAKESLEEKIMEYTDGLGVDISMECAGSKITEEQTLLVTKRRGKVGFVGIAYSDVLLHQKAFENIFRHELTVTGFWNSYSAPFPGREWTNSIQLVNRGRIKIKDLITHRFELEDMQKAFNMITTRSESFNKVMFFPNGIN
Q: With B1 as the molecule, how does the XPDH activity [2] read?
A: approximately 0.3 U/mg protein

B2: enzyme from B. halodurans: D-arabitol-phosphate dehydrogenase from B. halodurans, SEQ ID NO:70, expressed from pGTK74(BHDH) (protein)
chain: MKALVKTQHGTGHFAVQEKPEPTPGKHQVKIKVKYTGVCGSDIHTYEGHYPVAAPVTLGHEFSGEIVELGEGVTGFNVGDRVTSETTYSICGKCSYCTSGDYNLCSHRKGLGNQQDGSFAKYVIARQESLHHLPAGVDDRSAAMTEPLACTHHAIAKTSINKGDLVVVTGPGPIGLLAAQVAKSHGGTVIITGLSNDQVRLKKAKEVGIDYAIDTQEVDIKELVSELTDGYGADVVLECSGAVPAAKQGIDLLRKKGQYAQVGLFAQPEIQFNFEKIIQKEISVVGSRSQKPADWEPALSLLNEKKVNAKTLVTHEYTISEWDKAYHAIKSGEAIKVLLTPID
modifications: Bacillus halodurans (deduced sequence)
Q: With B2 as the molecule, how does the “products found in the reaction mixture / stereospecificity” value [3] read?
A: this enzyme is indeed a D-arabitol-phosphate dehydrogenase

B3: B. halodurans enzyme: xylitol-phosphate dehydrogenase from B. halodurans, SEQ ID NO:50, expressed from pGTK74(BHDH2) (protein)
chain: MKALNLYGIQDLRFEETPAPSIEHDDDIIIKVKAVGICGSDLSRYKKLGPYVPGMTFGHEFAGEVVKIGRSVTGFSIGDRVAACPTYTCGQCRYCQLGEPTRCERLSVIGARHPGAYAEYVKLPAKHVIPLPNVVNYDEAALIEPASVVAHGFYRTNIKPGASVAIMGVGSIGLLAVQWAKIFGATTVFAIDIDEQKLNVANQLGADVLISSLQRPAHKQILEYTNGIGVDVAVESAGTPSTSAQVFALPKKGGEVVFLGIPYADVQIERFYFEKIVRNELHVYGSWNALSSPFPGKEWATTIHYMSSGQLNVAPMISYRLPLAKGPETFQQIAKGELKPTKVLFYPEKLSERK
modifications: Bacillus halodurans
Q: With B3 as the molecule, how does the XPDH activity [2] read?
A: about 0.5 U/mg protein

Q: What about the “products found in the reaction mixture / stereospecificity” value [3] of the same molecule?
A: Only xylitol and xylulose (corresponding to the unreacted xylulose 5-phosphate) but no arabitol were found
